Where “and” joins values, the source holds several entries; their conditions need not be identical. Equal entries are not always repeated.
Details: 283.14 K, Liquid, Vibrating tube method

CCCCCCCCCC [decane]
Details	mass density
322 kPa	737.5 kg/m3
338 kPa	737.7 kg/m3
385 kPa	737.6 kg/m3
479 kPa	737.8 kg/m3
514 kPa	737.8 kg/m3
551 kPa	737.8 kg/m3
574 kPa	737.8 kg/m3
589 kPa	737.8 kg/m3
615 kPa	737.9 kg/m3
633 kPa	737.9 kg/m3
651 kPa	737.9 kg/m3
665 kPa	737.9 kg/m3
683 kPa	737.8 kg/m3
700 kPa	737.8 kg/m3
721 kPa	737.8 kg/m3
740 kPa	737.9 kg/m3
763 kPa	738 kg/m3
783 kPa	737.9 kg/m3
808 kPa	738 kg/m3
833 kPa	738 kg/m3
857 kPa	738 kg/m3
877 kPa	738 kg/m3
899 kPa	738 kg/m3
931 kPa	738.1 kg/m3
966 kPa	738.2 kg/m3
995 kPa	738.1 kg/m3
1025 kPa	738.1 kg/m3
1066 kPa	738.2 kg/m3
1103 kPa	738.2 kg/m3
1133 kPa	738.1 kg/m3
1173 kPa	738.3 kg/m3
1217 kPa	738.3 kg/m3
1247 kPa	738.2 kg/m3
1299 kPa	738.3 kg/m3
1359 kPa	738.3 kg/m3
1404 kPa	738.5 kg/m3
1536 kPa	738.5 kg/m3
2661 kPa	739.4 kg/m3
2677 kPa	739.3 kg/m3
2694 kPa	739.3 kg/m3
2848 kPa	739.5 kg/m3
2888 kPa	739.4 kg/m3
2910 kPa	739.5 kg/m3
2926 kPa	739.5 kg/m3
2942 kPa	739.5 kg/m3
2959 kPa	739.6 kg/m3
2987 kPa	739.6 kg/m3
3024 kPa	739.7 kg/m3
3042 kPa	739.6 kg/m3
3053 kPa	739.6 kg/m3
3064 kPa	739.7 kg/m3
3084 kPa	739.6 kg/m3
3192 kPa	739.6 kg/m3
3239 kPa	739.7 kg/m3
3249 kPa	739.8 kg/m3
3261 kPa	739.8 kg/m3
3321 kPa	739.8 kg/m3
3332 kPa	739.8 kg/m3
3814 kPa	740.2 kg/m3
3824 kPa	740.1 kg/m3
3837 kPa	740.2 kg/m3
3847 kPa	740.3 kg/m3
3862 kPa	740.2 kg/m3
3876 kPa	740.1 kg/m3
3887 kPa	740.3 kg/m3
4382 kPa	740.6 kg/m3
4686 kPa	740.8 kg/m3
4709 kPa	740.9 kg/m3
4730 kPa	740.8 kg/m3
4749 kPa	740.9 kg/m3
4854 kPa	741 kg/m3
4879 kPa	741 kg/m3
4901 kPa	741 kg/m3
4924 kPa	740.9 kg/m3
4947 kPa	741 kg/m3
4968 kPa	741.1 kg/m3
4992 kPa	741.1 kg/m3
5006 kPa	741.1 kg/m3
5028 kPa	741 kg/m3
5042 kPa	741 kg/m3
5058 kPa	741.1 kg/m3
5077 kPa	741.1 kg/m3
5094 kPa	741.2 kg/m3
5117 kPa	741.1 kg/m3
5136 kPa	741 kg/m3
5156 kPa	741.1 kg/m3
5176 kPa	741.3 kg/m3
5205 kPa	741.3 kg/m3
5223 kPa	741.2 kg/m3
5244 kPa	741.2 kg/m3
5265 kPa	741.2 kg/m3
5316 kPa	741.3 kg/m3
5598 kPa	741.5 kg/m3
5751 kPa	741.6 kg/m3
5767 kPa	741.6 kg/m3
5776 kPa	741.6 kg/m3
5781 kPa	741.6 kg/m3
5783 kPa	741.6 kg/m3
5784 kPa	741.5 kg/m3 and 741.7 kg/m3
5793 kPa	741.7 kg/m3
5798 kPa	741.6 kg/m3
5802 kPa	741.6 kg/m3
5814 kPa	741.7 kg/m3
5816 kPa	741.6 kg/m3
5823 kPa	741.7 kg/m3
5833 kPa	741.6 kg/m3
5852 kPa	741.7 kg/m3
5869 kPa	741.7 kg/m3
5881 kPa	741.7 kg/m3
5888 kPa	741.6 kg/m3
5891 kPa	741.7 kg/m3
5895 kPa	741.8 kg/m3
5898 kPa	741.7 kg/m3
5902 kPa	741.8 kg/m3
5907 kPa	741.7 kg/m3
5910 kPa	741.7 kg/m3
5914 kPa	741.7 kg/m3
5929 kPa	741.7 kg/m3
6176 kPa	741.9 kg/m3
6202 kPa	741.9 kg/m3
6218 kPa	741.8 kg/m3
6237 kPa	741.9 kg/m3
6251 kPa	741.8 kg/m3
6269 kPa	741.9 kg/m3
6284 kPa	742 kg/m3
6304 kPa	741.9 kg/m3
6319 kPa	742 kg/m3
6335 kPa	742 kg/m3
6350 kPa	741.9 kg/m3
6373 kPa	742.1 kg/m3
6391 kPa	742.1 kg/m3
6409 kPa	742 kg/m3
6431 kPa	742 kg/m3
6452 kPa	742 kg/m3
6465 kPa	742.1 kg/m3
6481 kPa	742 kg/m3
6497 kPa	742.2 kg/m3
6519 kPa	742.2 kg/m3
6543 kPa	742.1 kg/m3
6560 kPa	742.2 kg/m3
6588 kPa	742.2 kg/m3
6610 kPa	742.2 kg/m3
7156 kPa	742.7 kg/m3
7171 kPa	742.6 kg/m3
7221 kPa	742.7 kg/m3
7240 kPa	742.6 kg/m3
7671 kPa	742.8 kg/m3
7684 kPa	742.9 kg/m3
7747 kPa	743 kg/m3
7758 kPa	743 kg/m3
7770 kPa	743 kg/m3
8186 kPa	743.2 kg/m3
8201 kPa	743.4 kg/m3
8217 kPa	743.3 kg/m3
8232 kPa	743.3 kg/m3
8252 kPa	743.3 kg/m3
8265 kPa	743.3 kg/m3
8279 kPa	743.3 kg/m3
8296 kPa	743.4 kg/m3
8848 kPa	743.8 kg/m3
8878 kPa	743.7 kg/m3
8907 kPa	743.7 kg/m3
8922 kPa	743.8 kg/m3
8936 kPa	743.9 kg/m3
8949 kPa	743.7 kg/m3
8964 kPa	743.9 kg/m3
8980 kPa	743.8 kg/m3
8992 kPa	743.9 kg/m3
9004 kPa	743.8 kg/m3
9019 kPa	743.8 kg/m3
9029 kPa	743.9 kg/m3
9038 kPa	743.8 kg/m3
9050 kPa	743.9 kg/m3
9059 kPa	743.9 kg/m3
9071 kPa	743.8 kg/m3
9080 kPa	743.9 kg/m3
9717 kPa	744.3 kg/m3
10364 kPa	744.7 kg/m3
10421 kPa	744.9 kg/m3
10435 kPa	744.9 kg/m3
10472 kPa	744.9 kg/m3
10482 kPa	744.8 kg/m3
10525 kPa	744.9 kg/m3
10552 kPa	744.9 kg/m3
10563 kPa	744.8 kg/m3
10574 kPa	745 kg/m3
10588 kPa	744.9 kg/m3
10597 kPa	744.9 kg/m3
10608 kPa	745 kg/m3
10620 kPa	745 kg/m3
10631 kPa	745 kg/m3
10646 kPa	745 kg/m3
10659 kPa	745 kg/m3
10673 kPa	745 kg/m3
10999 kPa	745.3 kg/m3
11564 kPa	745.6 kg/m3
11578 kPa	745.6 kg/m3
11593 kPa	745.6 kg/m3
11608 kPa	745.6 kg/m3
11694 kPa	745.7 kg/m3
11712 kPa	745.6 kg/m3
11728 kPa	745.8 kg/m3
11741 kPa	745.7 kg/m3
11759 kPa	745.7 kg/m3
13134 kPa	746.6 kg/m3
13157 kPa	746.7 kg/m3
13176 kPa	746.7 kg/m3
13196 kPa	746.7 kg/m3
13216 kPa	746.6 kg/m3
13236 kPa	746.7 kg/m3
13256 kPa	746.6 kg/m3
13276 kPa	746.7 kg/m3
13296 kPa	746.7 kg/m3
13358 kPa	746.8 kg/m3
13379 kPa	746.8 kg/m3
13400 kPa	746.9 kg/m3
13421 kPa	746.8 kg/m3
13438 kPa	746.8 kg/m3
13465 kPa	746.8 kg/m3
13489 kPa	746.9 kg/m3
13507 kPa	746.8 kg/m3
13528 kPa	746.8 kg/m3
13546 kPa	746.8 kg/m3
13574 kPa	746.9 kg/m3
13613 kPa	747 kg/m3
14239 kPa	747.3 kg/m3
14264 kPa	747.4 kg/m3
14287 kPa	747.4 kg/m3
14316 kPa	747.4 kg/m3
14335 kPa	747.4 kg/m3
14461 kPa	747.5 kg/m3
15158 kPa	748 kg/m3
15181 kPa	747.9 kg/m3
15201 kPa	748.1 kg/m3
15221 kPa	748 kg/m3
15259 kPa	748.1 kg/m3
15288 kPa	748 kg/m3
15328 kPa	748 kg/m3
16053 kPa	748.5 kg/m3
17575 kPa	749.4 kg/m3
17600 kPa	749.6 kg/m3
17681 kPa	749.6 kg/m3
18272 kPa	750 kg/m3
18327 kPa	750.1 kg/m3
18353 kPa	749.9 kg/m3
18410 kPa	750.1 kg/m3
18436 kPa	750.1 kg/m3
18466 kPa	750.1 kg/m3
18497 kPa	750.2 kg/m3
18520 kPa	750.2 kg/m3
18543 kPa	750.1 kg/m3
18605 kPa	750.2 kg/m3
18628 kPa	750.2 kg/m3
19272 kPa	750.6 kg/m3
19319 kPa	750.6 kg/m3
19342 kPa	750.7 kg/m3
19377 kPa	750.7 kg/m3
19413 kPa	750.7 kg/m3
20535 kPa	751.4 kg/m3
20578 kPa	751.3 kg/m3
20601 kPa	751.5 kg/m3
21429 kPa	752 kg/m3
21453 kPa	752 kg/m3
21475 kPa	751.9 kg/m3
21504 kPa	752 kg/m3
21533 kPa	752 kg/m3
21563 kPa	752.1 kg/m3
21589 kPa	752 kg/m3
21622 kPa	752.2 kg/m3
21647 kPa	752.1 kg/m3
21669 kPa	752.1 kg/m3
21696 kPa	752 kg/m3
21719 kPa	752.2 kg/m3
